Activity calls are given as the source filed them.
Legend:
HEK293 [1] = assay: EBV LMP1 TES2 canonical NF-kB signalling blockers – cell-based, HEK293, luciferase, cherry-pick, dose response (AID 588343); type: functional; conditions: Homo sapiens
[2] = reduction of Shn3 3'UTR-driven luciferase in osteoblasts – cell-based, Clone20 osteoblasts, firefly luciferase, cherry-picked, dose response (AID 624132); type: functional;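 further: firefly luciferase luminescence from reporter carrying the Shn3 3'UTR in osteoblasts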
[3] = non-specific 3'UTR reporter inhibition in Clone20-Shn3RL – cell-based, Renilla luciferase, cherry-picked, counter-screen for Shn3 inhibitor project, dose response (AID 624133); type: functional
Protein skinhead-1 = target: T1, Protein skinhead-1 (Caenorhabditis elegans, UniProt P34707); type: functional
T1 sequence (P34707 whole entry): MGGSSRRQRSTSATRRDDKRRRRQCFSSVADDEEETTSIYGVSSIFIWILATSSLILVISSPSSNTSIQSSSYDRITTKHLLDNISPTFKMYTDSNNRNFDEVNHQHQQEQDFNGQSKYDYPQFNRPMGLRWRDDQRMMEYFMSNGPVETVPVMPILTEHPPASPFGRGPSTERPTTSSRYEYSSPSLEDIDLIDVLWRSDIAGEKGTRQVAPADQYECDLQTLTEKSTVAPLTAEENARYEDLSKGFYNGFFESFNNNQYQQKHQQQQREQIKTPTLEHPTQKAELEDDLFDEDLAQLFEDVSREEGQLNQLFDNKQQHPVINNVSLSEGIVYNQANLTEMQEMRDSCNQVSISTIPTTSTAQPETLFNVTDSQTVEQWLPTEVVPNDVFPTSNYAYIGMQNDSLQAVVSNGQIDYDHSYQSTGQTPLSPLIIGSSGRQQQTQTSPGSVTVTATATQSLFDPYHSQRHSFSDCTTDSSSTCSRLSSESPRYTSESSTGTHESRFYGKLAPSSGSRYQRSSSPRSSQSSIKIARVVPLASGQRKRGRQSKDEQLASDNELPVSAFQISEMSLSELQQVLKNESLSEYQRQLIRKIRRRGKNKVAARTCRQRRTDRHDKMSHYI

[4] = Luminescence Cell-Based Dose Confirmation HTS to Identify Activators of 5'UTR Stem-Loop Driven Alpha-Synuclein mRNA Translation in H4 Neuroglioblastoma Cells. [Related pubchem assays: 1829 (Project Summary), 1814 (Primary HTS)]; type: functional
[5] = Luminescence Cell-Based Dose Response HTS to Identify Activators of Luciferase Translation or Activity in H4 […] Cells. [Related pubchem assays: 1829 (Project Summary), 1814 (Primary HTS)]; type: functional
H4 = assay: Luminescence Cell-Based Dose Response HTS to Identify Activators of 5'UTR Stem-Loop Driven Prion Protein mRNA Translation in H4 Neuroglioblastoma Cells. [Related pubchem assays: 1829 (Project Summary), 1814 (Primary HTS)]; type: functional; conditions: Homo sapiens
HeLa = assay: ATP-based viability loss in HeLa cells – cell-based, CellTiter-Glo luminescence, cherry-pick samples, cytotoxicity control for MITF activator project, dose response (AID 540259); type: functional; conditions: Homo sapiens
Cytochrome P450 2C9 = Cytochrome P450 2C9 (Homo sapiens, UniProt P11712)
Cytochrome P450 2C9, sequence (P11712 whole entry): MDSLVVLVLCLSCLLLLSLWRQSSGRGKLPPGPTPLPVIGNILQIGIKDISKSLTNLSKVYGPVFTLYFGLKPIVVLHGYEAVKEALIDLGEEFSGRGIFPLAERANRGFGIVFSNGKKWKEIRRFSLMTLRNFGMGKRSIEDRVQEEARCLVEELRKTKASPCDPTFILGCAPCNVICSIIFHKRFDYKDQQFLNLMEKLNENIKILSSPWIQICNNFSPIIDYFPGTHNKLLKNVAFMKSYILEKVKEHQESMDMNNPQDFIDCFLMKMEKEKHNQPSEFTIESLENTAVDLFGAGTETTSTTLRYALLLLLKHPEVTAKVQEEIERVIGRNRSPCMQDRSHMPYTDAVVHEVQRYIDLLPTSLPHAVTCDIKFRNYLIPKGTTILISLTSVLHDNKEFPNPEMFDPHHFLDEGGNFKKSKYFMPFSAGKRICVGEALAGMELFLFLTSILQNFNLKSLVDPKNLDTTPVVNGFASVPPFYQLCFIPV

Caspase-3 = target: T2, Caspase-3 (Homo sapiens, UniProt P42574); type: functional;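 further: Dose-response selectivity test against caspase-3 for candidate inhibitors of sentrin-specific proteases (SENPs)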
T2 sequence (P42574 whole entry): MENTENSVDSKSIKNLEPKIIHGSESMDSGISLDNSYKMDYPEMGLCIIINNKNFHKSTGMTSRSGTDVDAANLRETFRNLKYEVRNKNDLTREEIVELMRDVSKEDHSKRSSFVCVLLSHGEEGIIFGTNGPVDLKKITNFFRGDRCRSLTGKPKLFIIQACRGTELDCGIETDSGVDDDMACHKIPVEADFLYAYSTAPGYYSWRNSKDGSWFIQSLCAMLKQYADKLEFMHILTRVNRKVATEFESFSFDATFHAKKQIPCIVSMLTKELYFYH

[6] = target: T3, Sentrin-specific protease 7 (Homo sapiens, UniProt Q9BQF6); type: functional;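 further: Luminescence-based dose-response confirmation of ultra-high-throughput screening hits, measuring inhibition of SENP7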
T3 sequence (Q9BQF6 whole entry): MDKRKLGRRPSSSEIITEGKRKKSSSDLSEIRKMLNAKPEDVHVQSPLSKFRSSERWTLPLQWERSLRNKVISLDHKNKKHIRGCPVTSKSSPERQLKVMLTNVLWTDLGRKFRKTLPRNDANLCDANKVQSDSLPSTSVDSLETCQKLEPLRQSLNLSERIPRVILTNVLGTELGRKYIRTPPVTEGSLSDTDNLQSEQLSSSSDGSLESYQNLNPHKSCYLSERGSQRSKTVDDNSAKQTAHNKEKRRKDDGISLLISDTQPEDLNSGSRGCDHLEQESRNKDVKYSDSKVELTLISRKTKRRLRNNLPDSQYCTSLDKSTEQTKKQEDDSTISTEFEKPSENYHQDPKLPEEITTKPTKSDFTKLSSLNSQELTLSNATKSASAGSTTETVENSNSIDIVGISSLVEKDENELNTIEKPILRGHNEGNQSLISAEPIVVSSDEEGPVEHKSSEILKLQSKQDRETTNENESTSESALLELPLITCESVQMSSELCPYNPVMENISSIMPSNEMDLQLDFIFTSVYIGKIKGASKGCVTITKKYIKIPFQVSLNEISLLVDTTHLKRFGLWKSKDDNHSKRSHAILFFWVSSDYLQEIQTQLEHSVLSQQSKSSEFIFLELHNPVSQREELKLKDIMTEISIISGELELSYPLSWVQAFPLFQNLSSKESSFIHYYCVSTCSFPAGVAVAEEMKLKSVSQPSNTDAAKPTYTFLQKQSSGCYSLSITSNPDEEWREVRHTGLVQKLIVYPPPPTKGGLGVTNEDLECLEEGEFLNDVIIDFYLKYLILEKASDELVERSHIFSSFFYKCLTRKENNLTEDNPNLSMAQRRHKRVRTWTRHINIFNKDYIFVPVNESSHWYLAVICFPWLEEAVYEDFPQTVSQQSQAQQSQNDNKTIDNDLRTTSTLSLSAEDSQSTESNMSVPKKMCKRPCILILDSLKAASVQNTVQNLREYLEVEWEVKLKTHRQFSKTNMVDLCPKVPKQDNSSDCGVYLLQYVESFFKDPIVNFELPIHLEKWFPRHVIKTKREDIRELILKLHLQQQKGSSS

[7] = target: T4, Sentrin-specific protease 6 (Homo sapiens, UniProt Q9GZR1); type: functional;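 further: Luminescence-based dose-response confirmatory assay of SENP6 inhibition, following up an ultra-high-throughput screen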
T4 sequence (Q9GZR1 whole entry): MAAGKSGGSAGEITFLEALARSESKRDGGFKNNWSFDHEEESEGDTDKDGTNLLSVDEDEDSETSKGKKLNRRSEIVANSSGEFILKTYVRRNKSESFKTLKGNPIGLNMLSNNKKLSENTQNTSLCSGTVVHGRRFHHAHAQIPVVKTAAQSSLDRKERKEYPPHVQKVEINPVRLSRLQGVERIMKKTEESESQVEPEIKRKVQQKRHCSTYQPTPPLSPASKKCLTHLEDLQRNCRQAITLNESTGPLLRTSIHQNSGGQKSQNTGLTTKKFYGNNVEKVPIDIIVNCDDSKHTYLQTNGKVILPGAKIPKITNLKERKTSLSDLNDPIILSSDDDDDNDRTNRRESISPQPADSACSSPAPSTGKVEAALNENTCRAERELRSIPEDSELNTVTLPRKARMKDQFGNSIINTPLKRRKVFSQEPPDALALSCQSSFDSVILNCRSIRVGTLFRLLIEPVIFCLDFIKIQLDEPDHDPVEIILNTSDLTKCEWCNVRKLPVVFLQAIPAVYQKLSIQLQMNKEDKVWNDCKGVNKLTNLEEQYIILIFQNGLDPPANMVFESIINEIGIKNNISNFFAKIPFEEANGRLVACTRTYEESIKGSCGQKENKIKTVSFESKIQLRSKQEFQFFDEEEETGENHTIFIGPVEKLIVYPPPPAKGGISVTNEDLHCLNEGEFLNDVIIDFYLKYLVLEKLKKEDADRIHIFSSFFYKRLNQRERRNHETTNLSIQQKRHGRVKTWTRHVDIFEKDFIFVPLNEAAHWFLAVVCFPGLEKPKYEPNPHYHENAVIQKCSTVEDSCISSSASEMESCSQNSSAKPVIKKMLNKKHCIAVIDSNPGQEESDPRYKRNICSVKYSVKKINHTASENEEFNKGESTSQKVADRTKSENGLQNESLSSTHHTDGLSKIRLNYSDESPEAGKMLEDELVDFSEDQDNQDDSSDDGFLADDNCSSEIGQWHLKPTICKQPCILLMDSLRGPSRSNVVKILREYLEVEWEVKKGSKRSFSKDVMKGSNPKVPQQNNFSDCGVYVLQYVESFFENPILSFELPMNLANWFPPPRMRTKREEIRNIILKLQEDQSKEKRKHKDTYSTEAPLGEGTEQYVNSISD

[8] = target: T5, Sentrin-specific protease 8 (Homo sapiens, UniProt Q96LD8); type: functional;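 further: luminescence read-out of SENP8 inhibition, dose-response confirmation following an ultra-high-throughput screen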
T5 sequence (Q96LD8 whole entry): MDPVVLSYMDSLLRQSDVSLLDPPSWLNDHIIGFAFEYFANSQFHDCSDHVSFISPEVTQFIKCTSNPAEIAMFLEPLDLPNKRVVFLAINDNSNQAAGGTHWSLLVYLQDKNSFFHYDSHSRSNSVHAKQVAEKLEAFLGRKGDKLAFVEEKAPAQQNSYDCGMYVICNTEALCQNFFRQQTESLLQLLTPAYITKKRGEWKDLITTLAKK

HEK293 [9] = assay: cells; type: functional, cell-based; conditions: Homo sapiens
[10] = target: T6, Nuclear receptor subfamily 0 group B member 1 (Homo sapiens, UniProt P51843); assay: Luminescence-based cell-based high throughput dose response assay for inhibitors of the orphan nuclear receptor subfamily 0, group B, member 1 (DAX1; NR0B1). [Related pubchem assays (depositor defined):AID504766, AID504790]; type: functional
T6 sequence (P51843 whole entry): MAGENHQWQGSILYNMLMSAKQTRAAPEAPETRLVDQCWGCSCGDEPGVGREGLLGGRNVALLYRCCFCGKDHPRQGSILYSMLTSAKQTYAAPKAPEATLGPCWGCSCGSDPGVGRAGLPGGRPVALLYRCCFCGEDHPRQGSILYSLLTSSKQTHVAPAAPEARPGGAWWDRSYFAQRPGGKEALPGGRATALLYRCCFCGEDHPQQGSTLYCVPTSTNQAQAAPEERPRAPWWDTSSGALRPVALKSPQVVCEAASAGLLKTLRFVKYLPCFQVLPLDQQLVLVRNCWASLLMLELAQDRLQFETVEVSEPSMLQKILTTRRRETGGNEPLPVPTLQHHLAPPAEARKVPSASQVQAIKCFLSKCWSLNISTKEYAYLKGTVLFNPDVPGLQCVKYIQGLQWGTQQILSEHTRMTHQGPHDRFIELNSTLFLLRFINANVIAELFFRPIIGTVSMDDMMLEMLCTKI

Trypsin = Trypsin (Sus scrofa, UniProt P00761); assay: trypsin protease activity blockade – biochemical, quenched peptide fluorescence, cherry-pick, selectivity assay for Rce1 protease inhibitor project, dose response (AID 488789)
Trypsin, sequence (P00761 whole entry): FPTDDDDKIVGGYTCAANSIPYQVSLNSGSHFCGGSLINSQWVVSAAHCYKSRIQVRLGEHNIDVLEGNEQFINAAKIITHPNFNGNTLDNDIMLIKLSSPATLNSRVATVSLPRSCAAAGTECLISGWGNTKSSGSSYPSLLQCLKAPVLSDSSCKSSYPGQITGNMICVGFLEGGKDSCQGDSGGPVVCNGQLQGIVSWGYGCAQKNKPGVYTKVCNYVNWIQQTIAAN

CAAX prenyl protease 2 [11] = target: T7, CAAX prenyl protease 2 (Saccharomyces cerevisiae S288c, UniProt Q03530); type: biochemical
T7 sequence (Q03530 whole entry): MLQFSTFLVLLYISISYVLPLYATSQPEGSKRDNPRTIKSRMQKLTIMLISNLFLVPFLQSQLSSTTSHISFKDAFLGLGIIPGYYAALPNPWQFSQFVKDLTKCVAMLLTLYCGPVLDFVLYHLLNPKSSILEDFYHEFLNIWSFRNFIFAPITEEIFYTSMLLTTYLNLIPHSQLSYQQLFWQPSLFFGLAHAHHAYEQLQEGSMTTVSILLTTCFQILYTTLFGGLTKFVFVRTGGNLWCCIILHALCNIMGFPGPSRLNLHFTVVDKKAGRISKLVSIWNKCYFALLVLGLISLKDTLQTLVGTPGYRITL

CAAX prenyl protease 2 [12] = target: CAAX prenyl protease 2 (Homo sapiens, UniProt Q9Y256); assay: inhibition of Ras-converting CAAX protease Rce1 – biochemical, yeast membranes, quenched-peptide fluorescence, cherry-pick, dose response (AID 588849)
CAAX prenyl protease 2 (Homo sapiens, UniProt Q9Y256), sequence (Q9Y256 whole entry): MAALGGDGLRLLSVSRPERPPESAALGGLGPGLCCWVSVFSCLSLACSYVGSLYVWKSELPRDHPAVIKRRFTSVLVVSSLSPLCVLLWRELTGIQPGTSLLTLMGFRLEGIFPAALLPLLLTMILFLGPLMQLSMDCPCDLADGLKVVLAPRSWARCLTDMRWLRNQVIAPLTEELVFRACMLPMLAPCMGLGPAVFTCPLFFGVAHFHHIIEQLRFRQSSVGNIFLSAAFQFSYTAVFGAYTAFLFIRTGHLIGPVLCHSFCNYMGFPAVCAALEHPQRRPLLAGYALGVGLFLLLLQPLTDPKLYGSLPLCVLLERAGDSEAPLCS

[13] = NIH-3T3 fibroblast cytotoxicity, dose response, cytotoxicity control, cell-based, fluorescence, Alamar Blue, secondary assay (AID 2327); type: functional;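 further: NIH-3T3 mouse fibroblasts cultured with fluconazole at 8 µg/mL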
[14] = fluconazole-exposed Candida albicans growth modulators – fluorescence, retest, confirmation (AID 2467); type: functional, cell-based
[15] = target: Serine/threonine-protein phosphatase (Candida dubliniensis (strain CD36 / CBS 7987 / NCPF 3949 / NRRLY-17841) (Yeast), UniProt B9W6M3); assay: blockers of CaCl2-induced CDRE-lacZ signaling – S. cerevisiae, luminescence, secondary, dose response (AID 2388); type: functional, cell-based;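 further: yeast reporter cells carrying a calcineurin-responsive lacZ construct stimulated with calcium chloride; luminescent beta-galactosidase reporter signal in whole cells rather than isolated phosphatase activity; potency for inhibition where a drop in reporter signal means calcineurin blockade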
Serine/threonine-protein phosphatase, sequence (B9W6M3 whole entry): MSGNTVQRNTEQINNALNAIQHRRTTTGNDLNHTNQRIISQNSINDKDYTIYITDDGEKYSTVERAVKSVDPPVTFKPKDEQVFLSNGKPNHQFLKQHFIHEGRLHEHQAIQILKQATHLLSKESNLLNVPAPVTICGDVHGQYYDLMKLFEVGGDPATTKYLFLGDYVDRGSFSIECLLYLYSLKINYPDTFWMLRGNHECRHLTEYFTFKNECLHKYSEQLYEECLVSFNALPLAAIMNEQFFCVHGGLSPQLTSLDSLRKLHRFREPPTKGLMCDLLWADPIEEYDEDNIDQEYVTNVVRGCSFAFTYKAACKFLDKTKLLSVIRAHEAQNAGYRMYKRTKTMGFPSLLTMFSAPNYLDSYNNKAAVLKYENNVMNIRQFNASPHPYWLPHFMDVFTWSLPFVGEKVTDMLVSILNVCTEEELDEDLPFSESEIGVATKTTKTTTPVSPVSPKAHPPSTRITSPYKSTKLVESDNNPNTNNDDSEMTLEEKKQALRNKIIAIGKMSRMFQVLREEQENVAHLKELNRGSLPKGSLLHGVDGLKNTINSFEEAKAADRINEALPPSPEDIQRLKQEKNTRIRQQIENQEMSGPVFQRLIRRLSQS

[16] = target: ATP-dependent molecular chaperone HSP82 (Candida albicans (strain WO-1) (Yeast), UniProt C4YTQ8); assay: steroid-induced GRE reporter decrease in yeast – S. cerevisiae, luminescence, Hsp90 inhibitor project, dose response (AID 2400); type: functional, cell-based;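 further: beta-galactosidase luminescence from glucocorticoid response element reporter as proxy for Hsp90 function; inhibitor potency where signal loss means Hsp90 inhibition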
ATP-dependent molecular chaperone HSP82, sequence (C4YTQ8 whole entry): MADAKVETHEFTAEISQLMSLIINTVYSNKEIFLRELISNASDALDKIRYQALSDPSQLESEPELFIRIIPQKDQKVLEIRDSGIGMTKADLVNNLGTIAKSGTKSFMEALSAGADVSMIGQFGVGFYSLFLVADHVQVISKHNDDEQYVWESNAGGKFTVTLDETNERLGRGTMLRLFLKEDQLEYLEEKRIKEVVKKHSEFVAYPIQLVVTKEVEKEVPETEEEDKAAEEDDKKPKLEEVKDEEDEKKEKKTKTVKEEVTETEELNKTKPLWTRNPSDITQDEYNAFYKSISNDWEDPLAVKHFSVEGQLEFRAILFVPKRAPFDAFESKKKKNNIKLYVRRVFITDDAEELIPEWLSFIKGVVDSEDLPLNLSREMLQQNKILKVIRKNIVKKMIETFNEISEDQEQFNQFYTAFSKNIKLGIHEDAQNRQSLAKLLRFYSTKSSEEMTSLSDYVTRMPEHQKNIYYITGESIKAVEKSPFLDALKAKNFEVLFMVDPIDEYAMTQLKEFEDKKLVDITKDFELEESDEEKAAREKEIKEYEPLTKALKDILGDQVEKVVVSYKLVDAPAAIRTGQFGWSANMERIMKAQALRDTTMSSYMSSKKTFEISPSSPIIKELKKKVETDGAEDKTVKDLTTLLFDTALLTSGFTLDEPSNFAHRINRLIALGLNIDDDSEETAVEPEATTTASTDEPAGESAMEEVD

SMILES: Cc1ccc(-c2nc3cccnc3o2)cc1NC(=O)COc1ccc(C(C)(C)C)cc1
- AC50 (HEK293 [1]): 36.3 µM (active)
- AC50 [2]: 10.8 µM (active)
- AC50 [3]: 14.6 µM (active)
- IC50 (Protein skinhead-1): > 100 µM (inactive)

SMILES: O=c1oc2cc(Cl)ccc2n1CSc1nc2ccccc2s1
- EC50 [4]: 24.1 µM (active)
- EC50 [5]: 24.4 µM (active)
- EC50 (H4): 50.8 µM (active)
- AC50 (HeLa): 216 µM (active)

SMILES: Cc1cccc(CNc2ncnc3ccc(-c4ccoc4)cc23)c1
- AC50 (HEK293 [1]): 35.1 µM (active)
- AC50 (Cytochrome P450 2C9): 1 µM (inconclusive)

SMILES: O=C(Nc1cccs1)Nc1ccccc1Br
- IC50 (Caspase-3): 20.3 µM (active)
- IC50 [6]: 8.26 µM (active)
- IC50 [7]: 33.5 µM (active)
- IC50 [8]: 57.6 µM (active)

SMILES: O=C(CNC(=O)c1cc(O)nc2ccccc12)Nc1ccc(F)c(F)c1
- IC50 (HEK293 [9]): > 67.5 µM (inactive)
- IC50 [10]: > 67.5 µM (inactive)

SMILES: Cc1oc2c(CN3CCOCC3)c(O)ccc2c(=O)c1-c1ccccc1
- AC50 (Trypsin): 9.64 µM (active)
- AC50 (CAAX prenyl protease 2 [11]): 11 µM (active)
- AC50 (CAAX prenyl protease 2 [12]): 10.3 µM (active)

SMILES: COc1ccc(C2C3=C(O)CC(C)(C)CC3=Nc3[nH]nc(C)c32)cc1 (stereo unspecified)
- AC50 (Trypsin): > 100 µM (inactive)
- AC50 (CAAX prenyl protease 2 [12]): 13.5 µM (active)

SMILES: Cc1c(OCC(=O)NCC(O)c2ccccc2)ccc2c(-c3ccccc3)cc(=O)oc12 (stereo unspecified)
- EC50 [13]: 80.8 µM (active)
- EC50 [14]: 0.699 µM (active)
- EC50 [15]: > 180 µM (inactive)
- EC50 [16]: > 160 µM (inactive)

SMILES: O=c1c2ccccc2oc2cc(-c3ccc4cc[nH]c4c3)ccc12
- AC50 (HeLa): 53.5 µM (active)
